The text below walks through data of PubChem BioAssay (NCI).

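Cultured in 96-well plates, cells were exposed to test compound for 48 hours across five concentrations. The concentration for 50% growth inhibition is given as GI50. TGI: total growth inhibition.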

What all share (assay): growth of human tumour cells (NCI), 48 h
The test system of experiment [1] is A498 renal.
Experiment [2] deals with A549 NSCLC.
In experiment [3] the test system is COLO 205 colon.
Experiment [4] relates to EKVX NSCLC.
Experiment [5] has as its system MOLT-4 leukemia.
Experiment [6] deals with OVCAR-5 ovarian.
Experiment [7] deals with SF-539 CNS.
Experiment [8] has as its system SNB-19 CNS.
Experiment [9] deals with NCI/ADR-RES ovarian.
For experiment [10], the system named is PC-3 prostate.

With `O=C1C2C3C=C4c5ccccc5N(c5ccccc5)C4(C2C(=O)N1c1ccc(Br)cc1)[C@H]1C(=O)N(c2ccc(Br)cc2)C(=O)[C@@H]31` (stereo not given in full), the TGI in experiment [1], in [2], in [3], in experiment [4], in experiment [5] and in experiment [6] was greater than 100 µM each time. Moreover, the TGI in [7] and in experiment [8] was greater than 100 µM throughout.
On to `S=C=NCCc1ccccc1`, for which the TGI in experiment [1] stood at 2 µM; in experiment [2], 6.38 µM; in experiment [3] it was 3.07 µM; in [4] it was 30.4 µM; in experiment [6], 2.96 µM; in [7] it was 0.532 µM. Moreover, in [8], the TGI turned out to be 7.85 µM.
For the compound `CCOC(=O)/C=C/C(=O)[C@H](CC(C)C)NC(=O)[C@H](Cc1ccccc1)NC(=O)OCc1ccccc1`, the GI50 in [2] is 20.7 µM; in experiment [3], 2.46 µM; in experiment [4], 15.6 µM; in experiment [5], 2.42 µM; in experiment [9], 12.3 µM; in experiment [6], 14.3 µM. The GI50 was 4.39 µM in experiment [10], 2.45 µM in [7] and 12.6 µM in [8]. For the same compound, the TGI amounted to 39.6 µM in [2]; 5.83 µM in experiment [3]; 29 µM in experiment [4]; 9.25 µM in experiment [5]; 93.1 µM in experiment [9]; 31.1 µM in experiment [6]. The TGI in experiment [10] worked out at 16.4 µM; in [7] it was 6.04 µM; in [8], 28.1 µM.
As for `CCOc1ccc(O)cc1[P+](c1ccccc1)(c1ccccc1)c1ccccc1`, the TGI in experiment [1] came out at 29.5 µM; in experiment [2], 43.2 µM; in [3], 10 µM; in experiment [4], 24.2 µM; in experiment [6], 13.1 µM; in experiment [7], 17.8 µM. In experiment [8], this compound returned a TGI of 24.5 µM.
Turning to `COC1OC(C)C2OC(C)(C)OC2C1OC(C)=O` (stereo not given), the TGI in [1], in [2], in [3], in experiment [5], in experiment [6] and in experiment [7] was greater than 100 µM throughout. Besides, the TGI in experiment [8] was greater than 100 µM.
In the case of `C#CCN(C(=O)C(F)(F)F)c1ccc(C(=O)c2ccc(N(CC#C)C(=O)C(F)(F)F)cc2)cc1`, the TGI in experiment [2] was greater than 100 µM; in experiment [3] it was 92.5 µM; in [4], greater than 100 µM; in [5], 64.9 µM; in experiment [6], greater than 100 µM; in [7] it was greater than 100 µM. In addition, the TGI in experiment [8] is greater than 100 µM.
As for `CCCCCCCC(=O)OCC(=O)[C@]1(O)Cc2c(O)c3c(c(O)c2[C@@H](OC2CC(N)C(O)C(C)O2)C1)C(=O)c1c(OC)cccc1C3=O` (stereo not given in full), the GI50 in experiment [1] was 0.215 µM; in experiment [3], 0.0812 µM; in experiment [4], 0.236 µM; in experiment [9] it was 1.67 µM; in experiment [6], 0.422 µM; in [7] it was 0.166 µM. The GI50 in experiment [8] was 0.0601 µM. Moreover, the TGI in experiment [1] turned out to be 0.951 µM; in experiment [3], 0.778 µM; in experiment [4], 1.58 µM; in experiment [9] it was 4.41 µM; in experiment [6] it was 1.24 µM; in experiment [7], 1 µM. For the same compound, the TGI in [8] was 1.25 µM.
As for `CC[N+](C)(CC)CC(C)(C)C(=O)/C=C/c1ccc(/C=C/C(=O)C(C)(C)C[N+](C)(CC)CC)cc1`, the TGI in [1], in experiment [2], in experiment [3], in experiment [4], in [5] and in experiment [6] was greater than 100 µM throughout. In addition, the TGI in experiment [7] and in experiment [8] was greater than 100 µM each time.
On to `CC(=O)NNc1nc(C)c(C(=O)NNC(=O)C(=O)Nc2ccc([N+](=O)[O-])cc2C#N)s1`, for which the TGI in experiment [1], in experiment [2], in experiment [3], in [4], in experiment [5] and in [6] was greater than 100 µM in each case. Moreover, the TGI in experiment [7] and in experiment [8] was greater than 100 µM each time.
`CCCCCCCCCCCCCC(=O)CSCCNC(=O)CCNC(=O)[C@@H](O)C(C)(C)COP(=O)(O)OP(=O)(O)OCC1OC(n2cnc3c(N)ncnc32)C(O)C1OP(=O)(O)O` (stereo not given in full): the TGI in experiment [1] was 35.5 µM; in experiment [2], 45.9 µM; in experiment [3], 29.4 µM; in [4], 41.3 µM; in [6], 83.1 µM; in [7], 29.8 µM. Also, the TGI in experiment [8] came to 35.2 µM.
In the case of `O=C(c1ccccc1)n1c(-c2ccccc2)cs/c1=N\S(=O)(=O)c1ccc(N2N=C3c4ccccc4CC3C2c2cccs2)cc1` (stereo not given), the GI50 in [2] is 39.5 µM; in experiment [3], 98.1 µM; in [4], 40.7 µM; in experiment [5], 0.305 µM; in experiment [9], greater than 100 µM; in [6], 34.3 µM. Moreover, the GI50 is 39.2 µM in experiment [10], 58.6 µM in experiment [7] and 59.3 µM in [8]. The TGI in experiment [2] is greater than 100 µM; in experiment [3] it was greater than 100 µM; in experiment [4], greater than 100 µM; in [5], 21.2 µM; in experiment [9] it was greater than 100 µM; in [6], greater than 100 µM. The TGI in experiment [10], in [7] and in experiment [8] was greater than 100 µM in each case.
`Cc1ccc(C)c(NC(=O)CC2SC(=Nc3ccccc3Cl)NC2=O)c1` (stereo not given): the TGI in [1], in experiment [2], in experiment [3], in [4], in experiment [5] and in [6] was greater than 100 µM throughout. In addition, the TGI in experiment [7] and in experiment [8] was greater than 100 µM each time.
As for `CN(C)CCNC(=O)c1cccc2ccc(-c3ccc(-c4ccccc4)cc3)nc12`, the TGI worked out at 11 µM in experiment [1]; 7.66 µM in [2]; 3 µM in [3]; 24.6 µM in [4]; 5.16 µM in experiment [5]; 13.9 µM in [6]. Besides, the TGI in experiment [7] stood at 3.31 µM; in experiment [8], 25.1 µM.
